We go through five compounds from PMC6470675, “Design and Synthesis of New Quinoxaline Derivatives as Anticancer Agents and Apoptotic Inducers” (Molecules, 2019).

The term IC50 denotes the concentration that inhibits the measured activity by half. What is called inhibition is the relative decrease from the control value, in per cent. As a reminder, the melting point is the temperature, or range, at which the solid turns liquid.

In data set [1] the target is T1, VEGFR-2 (Homo sapiens, UniProt P35968).
T1 construct: purchased Bio Science Corporation (BPS), San Diego, CA, USA
T1 sequence (P35968 20-1356): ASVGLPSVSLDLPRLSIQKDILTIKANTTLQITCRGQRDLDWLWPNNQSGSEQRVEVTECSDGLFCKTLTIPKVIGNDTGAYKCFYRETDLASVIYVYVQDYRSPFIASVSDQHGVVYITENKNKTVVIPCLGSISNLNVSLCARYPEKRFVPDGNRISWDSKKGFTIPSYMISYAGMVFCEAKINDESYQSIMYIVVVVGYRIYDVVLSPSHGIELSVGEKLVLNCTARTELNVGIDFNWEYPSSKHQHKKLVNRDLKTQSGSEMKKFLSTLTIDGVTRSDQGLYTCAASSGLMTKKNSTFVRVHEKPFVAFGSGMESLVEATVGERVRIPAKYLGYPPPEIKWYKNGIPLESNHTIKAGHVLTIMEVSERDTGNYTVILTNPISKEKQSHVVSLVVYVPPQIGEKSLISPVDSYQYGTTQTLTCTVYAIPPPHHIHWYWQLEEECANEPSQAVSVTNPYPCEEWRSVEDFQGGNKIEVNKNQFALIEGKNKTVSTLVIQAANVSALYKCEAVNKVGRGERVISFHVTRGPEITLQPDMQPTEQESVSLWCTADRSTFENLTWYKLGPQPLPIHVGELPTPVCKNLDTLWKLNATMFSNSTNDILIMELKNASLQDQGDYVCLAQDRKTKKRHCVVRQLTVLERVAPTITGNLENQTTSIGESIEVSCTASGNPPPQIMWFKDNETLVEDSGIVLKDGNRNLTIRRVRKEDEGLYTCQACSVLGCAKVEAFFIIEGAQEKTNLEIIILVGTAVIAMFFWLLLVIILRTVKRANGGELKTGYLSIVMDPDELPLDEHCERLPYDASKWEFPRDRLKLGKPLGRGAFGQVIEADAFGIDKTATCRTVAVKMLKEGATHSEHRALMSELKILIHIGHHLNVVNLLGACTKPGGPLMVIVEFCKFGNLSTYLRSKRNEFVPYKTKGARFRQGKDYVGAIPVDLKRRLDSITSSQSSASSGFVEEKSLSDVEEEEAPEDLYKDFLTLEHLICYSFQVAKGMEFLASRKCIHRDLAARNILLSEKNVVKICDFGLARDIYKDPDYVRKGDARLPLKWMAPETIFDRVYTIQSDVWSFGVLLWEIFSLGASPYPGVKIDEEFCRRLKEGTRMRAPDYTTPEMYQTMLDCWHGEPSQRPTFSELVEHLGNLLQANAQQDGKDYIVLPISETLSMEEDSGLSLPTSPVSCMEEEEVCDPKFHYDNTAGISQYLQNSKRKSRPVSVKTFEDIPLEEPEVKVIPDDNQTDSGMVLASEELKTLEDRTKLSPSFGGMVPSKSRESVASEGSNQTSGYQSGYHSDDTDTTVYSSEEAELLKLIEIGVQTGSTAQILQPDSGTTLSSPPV
Particulars: cited from earlier work.

Data set [2] deals with three tumor cell lines (HCT116, Hep G2 and MCF-7). As to the kind of experiment: In vitro anti-cancer activity stated for the tested cell lines together. Particulars: HCT116, Hep G2 and MCF-7 together. In kind it is cell-based, human. The procedure: (§1) The targeted compounds were tested for their in-vitro anti-cancer activity against three tumor cell lines (HCT116, Hep G2 and MCF-7). Doxorubicin was included in the experiments as a reference cytotoxic compound. Exponentially growing cells from different cancer cell lines were trypsinized, counted and seeded at the appropriate densities into 96-well microtiter plates. Cells then were incubated in a humidified atmosphere at 37 °C for 24 h. Then, cells were exposed to different concentrations of compounds for 72 h. Then the viability of treated cells was determined using MTT technique (described latter).
(§2) Three cancer cell lines including human colon carcinoma (HCT116), human breast adenocarcinoma (MCF-7) and human hepatocellular carcinoma (Hep G2), were purchased from American Type Cell Culture Collection (ATCC, Manassas, VA, USA) and grown on the appropriate growth medium Dulbecco’s modified Eagle’s medium (DMEM) or Roswell Park Memorial Institute medium (RPMI 1640) supplemented with […] of streptomycin, 100 units/mL of penicillin and 10% of heat-inactivated fetal bovine serum in a humidified, 5% (v/v) CO2 atmosphere at 37 °C [34]. Cytotoxicity assay by 3-[4,5-dimethylthiazole-2-yl]-2,5-diphenyltetrazolium bromide (MTT).
Exponentially growing cells from different cancer cell lines were trypsinized, counted and seeded at the appropriate densities (2000–1000 cells/0.33 cm^2 well) into 96-well microtiter plates. Cells then were incubated in a humidified atmosphere at 37 °C for 24 h. Then, cells were exposed to different concentrations of compounds (0.1, 10, 100, 1000 µM) for 72 h. Then the viability of treated cells was determined using MTT technique as follow. Media were removed; cells were incubated with 200 μL of 5% MTT solution/well (Sigma Aldrich, Darmstadt, Germany) and were allowed to metabolize the dye into a colored-insoluble formazan crystal for 2 h. […] Absorbance were measured at 570 nm using a Stat Fax^R 4200 plate reader (Awareness Technology, Inc., Awareness Technology, FL, USA). […]

The subject of data set [3] is Hep G2 human hepatocellular carcinoma cell line. As to the kind of experiment: In vitro cell proliferation (MTT) assay, Hep G2. In kind it is cell-based. Particulars: for IC50: Homo sapiens, HepG2, MTT, 72 h exposure. The procedure:
as §1, §2
(§3) Exponentially growing cells from different cancer cell lines were trypsinized, counted and seeded at the appropriate densities (2000–1000 cells/0.33 cm^2 well) into 96-well microtiter plates. Cells then were incubated in a humidified atmosphere at 37 °C for 24 h. Then, cells were exposed to different concentrations of compounds (0.1, 10, 100, 1000 µM) for 72 h. Then the viability of treated cells was determined using MTT technique as follow. Media were removed; cells were incubated with 200 μL of 5% MTT solution/well (Sigma Aldrich, Darmstadt, Germany) and were allowed to metabolize the dye into a colored-insoluble formazan crystal for 2 h. The remaining MTT solution were discarded from the wells and the formazan crystals were dissolved in 200 µl/well acidified isopropanol for 30 min, covered with aluminum foil and with continuous shaking using a MaxQ 2000 plate shaker (Thermo Fisher Scientific Inc, Waltham, MA, USA) at room temperature. Absorbance were measured at 570 nm using a Stat Fax^R 4200 plate reader (Awareness Technology, Inc., Awareness Technology, FL, USA). The cell viability was expressed as percentage of control and the concentration that induces 50% of maximum inhibition of cell proliferation (IC50) were determined using Graph Pad Prism version 5 software (Graph Pad Software Inc, San Diego, CA, USA) (1,2).

Data set [4] has as its system fibroblast-like fetal lung cell line (WI-38). Nature of the data set: In vitro MTT cytotoxicity assay on normal WI-38 cells.
Method: Cell Line cells were obtained from American Type Culture Collection, cells were cultured using DMEM (Invitrogen/Life Technologies, Waltham, MA, USA) supplemented with 10% FBS (Hyclone, Waltham, MA, USA), 10 μg/mL of insulin (Sigma), and 1% penicillin-streptomycin. All of the other chemicals and reagents were from Sigma, or Invitrogen. Plate cells (cells density 1.2–1.8 × 10,000 cells/well) in a volume of 100 µL complete growth medium + 100 μL of the tested compound per well in a 96-well plate for 24 h before the MTT assay.
Data set [5] concerns HCT116 cells. As to the kind of experiment: Cell cycle analysis by flow cytometry. In kind it is cell-based, human. Particulars: 2.5 µM. The procedure:
The effect of compound VIIIc on the normal cell cycle progression was characterized using flow cytometric analysis of the DNA ploidy in HCT116 cells Figure 3. […] The observed increase in pre-G cell population may imply DNA fragmentation and apoptosis as a potential mechanism for VIIIc-induced cancer cell death.
HCT116 cells at a density of 4 × 10^6 cell/T 75 flask were exposed to 1-(4-Chlorophenyl)-3-(4-((3-methylquinoxalin-2-yl)amino)phenyl)urea VIIIc at its IC50 concentration for 24 and 48 h. The cells then were collected by trypsinization, washed with phosphate buffered saline (PBS), and fixed in ice-cold absolute alcohol. Thereafter, cells were stained, using Cycle test ^TM Plus DNA Reagent Kit (BD Biosciences, San Jose, CA, USA), according to the manufacturer’s instructions. Cell cycle distribution was determined using a FACS Calibur flow cytometer (BD Biosciences).
On the technique in general: Flow cytometry measures light scatter and fluorescence of single cells or particles in a stream.

Data set [6] relates to HCT116 cells. As to the kind of experiment: Annexin V-FITC/PI apoptosis determination. In kind it is cell-based, human. Particulars: IC50 (2.5 µM), 24 h and 48 h, compared to DMSO treated cells. From the text:
For further investigation of the ability of compound VIIIc to induce apoptosis, an Annexin V (conjugated to FITC) apoptosis detection kit was employed. This assay detects phosphatidylserine (PS) expressed on the surface of apoptotic cells and fluoresces green after interacting with the labeled annexin V. During early apoptosis, membrane asymmetry is lost, and PS translocates from the cytoplasmic side of the membrane to the external leaflet. Propidium iodide (PI), the counterstain used in this assay, has the ability to cross only compromised membranes to intercalate into the DNA. Therefore, PI is used to detect the late stages of apoptosis by presence of red fluorescence.
Apoptosis was determined by staining cells with Annexin V–fluorescein isothiocyanate (FITC) and counterstaining with propidium iodide (PI) using the Annexin V–FITC/PI apoptosis detection kit (BD PharMingen, San Diego, CA, USA) according to the manufacturer’s instructions. Briefly, 4 × 10^6 cell/T 75 flask were exposed to compound VIIIc at its IC50 concentration for 24 and 48 h. The cells then were collected by trypsinization and 0.5 × 10^6 cells were washed twice with phosphate-buffered saline (PBS) and stained with 5 μL Annexin V–FITC and 5 μL PI in 1× binding buffer (BD PharMingen) for 15 min at room temperature in the dark. Analyses were performed using FACS Calibur flow cytometer (BD Biosciences).

The subject of data set [7] is MCF-7 human breast adenocarcinoma cell line. Nature of the data set: In vitro cell proliferation (MTT) assay, MCF-7. In kind it is cell-based. Particulars: Homo sapiens, MCF7; MTT, 72 h exposure. The procedure:
as §1, §2, §3

The target of data set [8] is T1, VEGFR-2. As to the kind of experiment: In vitro VEGFR-2 inhibition assay (Kinase-Glo Plus luminescence). In kind it is biochemical. Particulars: for inhibition at 10 µM: single concentration of 10 µM, read-out: % of VEGFR-2 Inhibition. The procedure:
In an attempt to investigate the possible mechanism of action of the synthesized compounds based on structural similarity with sorafenib, all of them were tested for VEGFR-2 inhibitory activity at Bio Science Corporation (BPS, San Diego, CA, USA). The assay was performed using the Kinase-Glo Plus luminescence kinase assay kit (Promega, San Diego, CA, USA). It measures kinase activity by quantitating the amount of ATP remaining in solution following a kinase reaction. […].
The in-vitro enzyme inhibition determination for the synthesized compounds was carried out at Bio Science Corporation (BPS)-San Diego, CA, USA. The assay was performed using Kinase-Glo Plus luminescence kinase assay kit (Promega), where the kinase activity was measured by quantitating the amount of ATP remaining in solution following a kinase reaction. The luminescent signal from the assay is correlated with the amount of ATP present and is inversely correlated with the amount of kinase activity. Our compounds were diluted with 10% DMSO and 5 µL of the dilution was added to a 50 µL reaction so that the final concentration of DMSO is 1% in all of reactions. All of the enzymatic reactions were conducted at 30 °C for 40 min. The 50 µL reaction mixture contains 40 mM Tris, pH 7.4, 10 mM MgCl2, 0.1 mg/mL BSA, 1 mM DTT, 10 µM ATP, Kinase substrate and the enzyme. After the enzymatic reaction, 50 µL of Kinase-Glo Plus Luminescence kinase assay solution (Promega San Diego, CA, USA) was added to each reaction and incubate the plate for 5 min at room temperature. Luminescence signal was measured using a BioTek Synergy 2 microplate reader.
Kinase activity assays were performed in duplicate at each concentration. The luminescence data were analyzed using the computer software, Graphpad Prism. The difference between luminescence intensities in the absence of Kinase (Lut) and in the presence of Kinase (Luc) was defined as 100% activity (Lut − Luc). Using luminescence signal (Lu) in the presence of the compound, % activity was calculated as:% activity = {(Lut − Lu)(Lut − Luc)} × 100% where Lu = the luminescence intensity in the presence of the compound.
(In general: Kinase-Glo reads ATP consumption through a luciferase reaction.)

Data set [9] relates to HCT116 human colon carcinoma cell line. As to the kind of experiment: In vitro cell proliferation (MTT) assay, HCT116. In kind it is cell-based. Particulars: Homo sapiens, HCT-116; MTT, 72 h exposure. On the procedure:
as §1, §2, §3

A value given as a limit tells only on which side of the number the result lay.

Regarding `COc1ccc(Nc2nc3ccc(NC(=O)c4ccccc4C(=O)O)cc3[nH]c2=O)cc1` [Compound 4], in data set [1], the “inhibition percentage against VEGFR-2” value is 69%.
For the compound `Cc1nc2ccccc2nc1Nc1ccc(NC(=O)Nc2ccc(Cl)cc2)cc1` [Compound VIIIc, 1-(4-Chlorophenyl)-3-(4-((3-methylquinoxalin-2-yl)amino)phenyl)urea], the “activity against the tested cell lines (in words)” value in data set [2] is reported as “promising activity”. Besides, the “anti-cancer activity against Hep G2 cell line (in words)” value in data set [3] is given as “moderate activity”. The IC50 in data set [3] was found to be 22 µM; in [4] (read-out: IC50 on WI-38 cell line, MTT, normal cell line), 97.2 ± 5.66 µM; in [7] it was 9 µM; in data set [9] it was 2.5 µM. Besides, the “selectivity as anti-cancer agent (in words), from WI-38 IC50” value in data set [4] was “moderate selectivity”. For the same compound, the “effect on cell cycle profile (in words)” value in [5] (24 h) is “increase in G1 phase”; in data set [5] (48 h), “cell cycle arrest at G2/M phase boundary”. Besides, the “annexin-V positive cells (in words)” value in [6] is given as “increased the percentage of annexin-V positive cells”. Besides, the “activity against VEGFR-2 (in words)” value in data set [8] (10 µM) is reported as “weak activity”. Besides, the inhibition at 10 µM in data set [8] came to 7%.
Regarding `O=C(Nc1ccc(Cl)cc1)c1cccc(Nc2nc3ccccc3nc2Cl)c1` [Compound XVb, N-(4-Chlorophenyl)-3-((3-chloroquinoxalin-2-yl)amino)benzamide], the melting point fell in the range of 283 to 285 °C. Further, the “activity against the tested cell lines (in words)” value in [2] was “moderate to weak activities”. The compound also yielded an IC50 in data set [3] of 27.5 µM. The same compound returned an IC50 in data set [7] of 21.4 µM. Moreover, the inhibition at 10 µM in data set [8] was 7%. In data set [9], this compound had an IC50 of 15.5 µM.
For `Cc1nc2ccccc2nc1Nc1cccc(C(=O)Nc2ccc(Cl)cc2)c1` [VIb, N-(4-Chlorophenyl)-3-((3-methylquinoxalin-2-yl)amino)benzamide], the melting point is 240 to 241 °C. Further, the “activity against the tested cell lines (in words)” value in data set [2] was “no significant inhibitory activity”. The compound also yielded an IC50 in data set [3] of 955 µM. The same compound registered an IC50 in data set [7] of 692 µM. Also, the IC50 in data set [9] worked out at 537 µM.
Take `COc1ccc(C(=O)Nc2ccc(Nc3nc4ccccc4nc3Cl)cc2)cc1` [XVIc, N-(4-((3-Chloroquinoxalin-2-yl)amino)phenyl)-4-methoxybenzamide]: the melting point was in the range of 235 to 236 °C. The IC50 in data set [3] is > 1000 µM. For the same compound, in data set [7], the IC50 is > 1000 µM. Moreover, in [8], the inhibition at 10 µM was determined as 4%. Besides, the IC50 in data set [9] is > 1000 µM.
